Experimental data reported in US10729628B2, “Tyrosinase inhibitors” (Conopco, Inc., priority 2015, dated 2020).

What was measured:
[1] = system: mushroom tyrosinase (MT); experiment: Tyrosinase assay by oxidation of DOPA, mushroom tyrosinase; type: biochemical; settings: 37° C., 45 minutes; for OD475 nm (MT): background-corrected, uninhibited enzyme control 0.17
Procedure: (§1) The (tyrosinase) inhibitory activity of a, b, c and d was measured by oxidation of DOPA. Each crown ether was tested against human Tyrosinase (in the form of melanocytic extract) and commercial (Worthington, USA) mushroom tyrosinase (MT), using the DOPA oxidation assay. Details of the assay mix are included in table 2. [table] Assay examined the change (Optical Density) OD475 nm at 37° C., after 45 minutes reaction in a standard 96-well plate. All ON475 nm were corrected by subtracting the background OD475 nm value of the negative control sample lacking enzyme in the assay mix. […] The background effect of 10% DMSO on tyrosinase activity was also examined for calculation purposes (i.e. the ‘U’ sample).

[2] = target: T1, human Tyrosinase (in the form of melanocytic extract) (Homo sapiens, UniProt P14679); experiment: Tyrosinase assay by oxidation of DOPA, human tyrosinase (melanocytic extract); type: biochemical; settings: for % Inhibition (HME) / OD475 nm (HME) / inhibition at 100 µM / inhibition at 1000 µM / inhibition at 10 µM: 37° C., 45 minutes; for OD475 nm (HME): background-corrected, uninhibited enzyme control 0.141; for inhibition at 100 µM / inhibition at 1000 µM / inhibition at 10 µM: read-out: % Inhibition (HME); for inhibit the activity of tyrosinase: summary in words, at least one of human or mushroom tyrosinase, inhibitor = colour inhibited by more than 10% of control
T1 construct: 2.5 mg/ml human melanocytic lysate OR; endogenous in cells; host or cells: human melanocytes (lysate/extract)
T1 sequence (P14679 19-529): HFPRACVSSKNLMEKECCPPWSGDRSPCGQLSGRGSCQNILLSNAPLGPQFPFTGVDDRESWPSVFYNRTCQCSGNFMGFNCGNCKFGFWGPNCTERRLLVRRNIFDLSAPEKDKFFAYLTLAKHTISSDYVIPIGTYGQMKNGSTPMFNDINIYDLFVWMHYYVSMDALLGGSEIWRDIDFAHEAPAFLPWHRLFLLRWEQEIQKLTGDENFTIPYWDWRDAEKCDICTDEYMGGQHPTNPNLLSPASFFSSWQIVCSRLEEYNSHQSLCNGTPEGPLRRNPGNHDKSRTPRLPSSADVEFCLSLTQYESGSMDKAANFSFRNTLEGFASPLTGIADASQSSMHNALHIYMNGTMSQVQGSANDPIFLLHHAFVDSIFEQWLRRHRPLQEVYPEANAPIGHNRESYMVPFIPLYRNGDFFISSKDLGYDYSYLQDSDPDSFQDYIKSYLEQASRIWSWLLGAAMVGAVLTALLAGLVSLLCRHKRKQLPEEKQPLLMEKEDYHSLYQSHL
Procedure: as §1, with “[table]” left out

% Inhibition (MT) ([1]; 0.1 mM test compound) | OD475 nm (MT) ([1]; 0.1 mM test compound) | % Inhibition (MT) ([1]; 0.25 mM test compound) | OD475 nm (MT) ([1]; 0.25 mM test compound) | % Inhibition (MT) ([1]; 0.5 mM test compound) | OD475 nm (MT) ([1]; 0.5 mM test compound) | % Inhibition (HME) ([2]; 0.01 mM test compound) | OD475 nm (HME) ([2]; 0.01 mM test compound) | OD475 nm (HME) ([2]; 0.1 mM test compound) | inhibition at 100 µM ([2]; 0.1 mM test compound) | OD475 nm (HME) ([2]; 1 mM test compound) | inhibition at 1000 µM ([2]; 1 mM test compound) | % Inhibition (MT) ([1]; 0.01 mM test compound) | OD475 nm (MT) ([1]; 0.01 mM test compound) | % Inhibition (MT) ([1]; 1 mM test compound) | OD475 nm (MT) ([1]; 1 mM test compound) | inhibition at 10 µM ([2]; 0.01 mM test compound) | % Inhibition (HME) ([2]; 1 mM test compound) | SMILES | inhibit the activity of tyrosinase [2]
58% | 0.071 |  |  |  |  | No | 0.144 | 0.134 | 5% | 0.110 | 23% | 19% | 0.137 | 69% | 0.053 |  |  | COC(=O)C(C)(C)NC(=O)C(CC(C)C)NC(=O)C(C)NC(=O)c1ccc2c(c1)OCCOCCOCCOc1ccc(C(=O)NC(C)C(=O)NC(CC(C)C)C(=O)NC(C)(C)C(=O)OC)cc1OCCOCCOCCO2 (centres unmarked) [Compound d] | inhibit the activity of at least one of human or mushroom tyrosinase
5% | 0.162 |  |  |  |  |  | 0.092 | 0.094 | 33% | 0.027 | 81% | 9% | 0.156 | 49% | 0.087 | 35% |  | O=C(O)c1ccc2c(c1)OCCOCCOCCOc1ccc(C(=O)O)cc1OCCOCCOCCO2 [Compound c] | inhibit the activity of at least one of human or mushroom tyrosinase
25% | 0.128 |  |  |  |  |  |  | 0.126 | 11% | 0.029 | 79% |  |  | 60% | 0.068 |  |  | O=C(O)c1ccc2c(c1)OCCOCCOCCO2 [Compound a] | inhibit the activity of at least one of human or mushroom tyrosinase

Further lines, the molecule ahead of its results:

SMILES | % Inhibition (MT) ([1]; 0.1 mM test compound) | OD475 nm (MT) ([1]; 0.1 mM test compound) | % Inhibition (MT) ([1]; 0.25 mM test compound) | OD475 nm (MT) ([1]; 0.25 mM test compound) | % Inhibition (MT) ([1]; 0.5 mM test compound) | OD475 nm (MT) ([1]; 0.5 mM test compound) | % Inhibition (HME) ([2]; 0.01 mM test compound) | OD475 nm (HME) ([2]; 0.01 mM test compound) | OD475 nm (HME) ([2]; 0.1 mM test compound) | inhibition at 100 µM ([2]; 0.1 mM test compound) | OD475 nm (HME) ([2]; 1 mM test compound) | inhibition at 1000 µM ([2]; 1 mM test compound) | % Inhibition (MT) ([1]; 0.01 mM test compound) | OD475 nm (MT) ([1]; 0.01 mM test compound) | % Inhibition (MT) ([1]; 1 mM test compound) | OD475 nm (MT) ([1]; 1 mM test compound) | inhibition at 10 µM ([2]; 0.01 mM test compound) | % Inhibition (HME) ([2]; 1 mM test compound) | inhibit the activity of tyrosinase [2]
O=c1cc(CO)occ1O [Kojic acid, reference compound] | 23% | 0.131 | 35% | 0.111 | 51% | 0.084 |  |  |  |  |  |  |  |  |  |  |  |  | 
O=C(NC1CCCCC1)N(C(=O)c1ccc2c(c1)OCCOCCOCCO2)C1CCCCC1 [Compound b] |  |  |  |  |  |  |  | 0.125 |  |  | 0.162 |  | 6% | 0.160 | 28% | 0.122 | 12% | No | inhibit the activity of at least one of human or mushroom tyrosinase
